Laboratory results published in paper PMC7156458, “Synthetic biology based construction of biological activity-related library of fungal decalin-containing diterpenoid pyrones” (Nature Communications, 2020).
Like-named read-outs stand apart in the source and are kept apart here.

How the values were obtained:
Assay type in all cases: cell-based
[1] = cytotoxicity in Drosophila DL1 cells; conditions: Drosophila, DL1 cells (embryonic macrophage-derived), DL1 cells
Procedure: (§1) We screened the DDPs on the Drosophila assay system for cytotoxicity, inhibitory activity of innate immune signalling and insecticidal activity. The cytotoxicity of the DDPs was evaluated using two cell lines, embryonic macrophage-derived DL1 cells[58]–[60] and larval blood cell-derived l(2)mbn cells, and their IC50 values are listed in Supplementary Table 23.

[2] = system: DL1 cells; test: cytotoxicity in Drosophila DL1 cells; conditions: DL1 cells; for IC50: Drosophila melanogaster, cytotoxicity
Procedure: as §1

[3] = cytotoxicity in Drosophila l(2)mbn cells; conditions: Drosophila, l(2)mbn cells (larval blood cell-derived)
Procedure: as §1

[4] = system: l(2)mbn cells; test: cytotoxicity in Drosophila l(2)mbn cells; conditions: for Luminescence Raw1: replicate 1; for Luminescence Raw2: replicate 2; for IC50: Drosophila melanogaster, cytotoxicity
Procedure: as §1

[5] = system: human immunodeficiency virus-1 (HIV-1); test: anti-HIV MAGI assay; conditions: Human immunodeficiency virus 1, MAGI, anti-HIV
Text: We examined the inhibitory activities of DDPs against various species of bacteria (both gram-negative and gram-positive bacteria), fungi and viruses. […] In contrast, preliminary screening of the DDPs for anti-viral agents with hepatitis B virus (HBV), measles virus (MV), Epstein-Barr virus (EBV), herpes simplex virus (HSV) and human immunodeficiency virus-1 (HIV-1) indicated their selective inhibition of HIV.

[6] = replicate 1, relative to DMSO 1%, read-out: % viability, viability 1
[7] = replicate 2, relative to DMSO 1%, read-out: % viability, viability 2
[8] = average of two replicates, read-out: IC50 Average
[9] = replicate 1, read-out: IC50 (1)
[10] = replicate 2, read-out: IC50 (2)
[11] = average of numeric determinations, read-out: Avg. EC50

SMILES: C=C1CCC2C(C)(CCC=C(C)C)C(=O)CCC2(C)C1Cc1c(O)c(C)c(C)oc1=O (stereo not shown) [Compound 8]
- viability at 0.04 µM [1, 6]: 189%
- viability at 0.04 µM [1, 7]: 219%
- viability at 0.2 µM [1, 6]: 185%
- viability at 0.2 µM [1, 7]: 208%
- viability at 1 µM [1, 6]: 129%
- viability at 1 µM [1, 7]: 131%
- viability at 4 µM [1, 6]: 18.2%
- viability at 4 µM [1, 7]: 20.6%
- viability at 10 µM [1, 6]: 22.8%
- viability at 10 µM [1, 7]: 24.1%
- viability at 20 µM [1, 6]: 21.6%
- viability at 20 µM [1, 7]: 21.3%
- Luminescence Raw1 ([2]; 0.04 µM, replicate 1): 2594102
- Luminescence Raw2 ([2]; 0.04 µM, replicate 2): 2999528
- Luminescence Raw1 ([2]; 0.2 µM, replicate 1): 2536752
- Luminescence Raw2 ([2]; 0.2 µM, replicate 2): 2851638
- Luminescence Raw1 ([2]; 1 µM, replicate 1): 1767451
- Luminescence Raw2 ([2]; 1 µM, replicate 2): 1791254
- Luminescence Raw1 ([2]; 4 µM, replicate 1): 250019
- Luminescence Raw2 ([2]; 4 µM, replicate 2): 282109
- Luminescence Raw1 ([2]; 10 µM, replicate 1): 313118
- Luminescence Raw2 ([2]; 10 µM, replicate 2): 331147
- Luminescence Raw1 ([2]; 20 µM, replicate 1): 296893
- Luminescence Raw2 ([2]; 20 µM, replicate 2): 291484
- IC50 [2, 8]: 5.02 µM
- IC50 ([2]; average±SEM, read-out: IC50): 5.02 ± 0.22 µM
- IC50 [2, 9]: 4.8 µM
- IC50 [2, 10]: 5.25 µM
- viability at 0.04 µM [3, 6]: 86%
- viability at 0.04 µM [3, 7]: 82.2%
- viability at 0.2 µM [3, 6]: 87.7%
- viability at 0.2 µM [3, 7]: 91.3%
- viability at 1 µM [3, 6]: 86.7%
- viability at 1 µM [3, 7]: 91.8%
- viability at 4 µM [3, 6]: 70.7%
- viability at 4 µM [3, 7]: 85.1%
- viability at 10 µM [3, 6]: 2.83%
- viability at 10 µM [3, 7]: 2.94%
- viability at 20 µM [3, 6]: 1.82%
- viability at 20 µM [3, 7]: 2.53%
- Luminescence Raw1 ([4]; 0.04 µM): 5399824
- Luminescence Raw2 ([4]; 0.04 µM): 5163481
- Luminescence Raw1 ([4]; 0.2 µM): 5509158
- Luminescence Raw2 ([4]; 0.2 µM): 5734687
- Luminescence Raw1 ([4]; 1 µM): 5444928
- Luminescence Raw2 ([4]; 1 µM): 5762112
- Luminescence Raw1 ([4]; 4 µM): 4437905
- Luminescence Raw2 ([4]; 4 µM): 5343895
- Luminescence Raw1 ([4]; 10 µM): 177623
- Luminescence Raw2 ([4]; 10 µM): 184474
- Luminescence Raw1 ([4]; 20 µM): 114164
- Luminescence Raw2 ([4]; 20 µM): 158874
- IC50 [4, 8]: 5.14 µM
- IC50 ([4]; average±SEM, read-out: IC50): 5.14 ± 0.3 µM
- IC50 [4, 9]: 4.83 µM
- IC50 [4, 10]: 5.44 µM
- EC50 [5, 11]: 0.0232 µM

SMILES: C=C1CC[C@H]2[C@]3(C)C[C@H](C=C(C)C)O[C@H]3CC[C@]2(C)[C@@H]1Cc1c(OC)oc(CO)c(C)c1=O [Compound 18]
- viability at 0.04 µM [1, 6]: 95.6%
- viability at 0.04 µM [1, 7]: 92.1%
- viability at 0.2 µM [1, 6]: 56.9%
- viability at 0.2 µM [1, 7]: 64.1%
- viability at 1 µM [1, 6]: 7.49%
- viability at 1 µM [1, 7]: 7.12%
- viability at 4 µM [1, 6]: 4.95%
- viability at 4 µM [1, 7]: 5.08%
- viability at 10 µM [1, 6]: 5.18%
- viability at 10 µM [1, 7]: 6.3%
- viability at 20 µM [1, 6]: 3.9%
- viability at 20 µM [1, 7]: 5.16%
- Luminescence Raw1 ([2]; 0.04 µM, replicate 1): 1968545
- Luminescence Raw2 ([2]; 0.04 µM, replicate 2): 1896774
- Luminescence Raw1 ([2]; 0.2 µM, replicate 1): 1171179
- Luminescence Raw2 ([2]; 0.2 µM, replicate 2): 1320836
- Luminescence Raw1 ([2]; 1 µM, replicate 1): 154319
- Luminescence Raw2 ([2]; 1 µM, replicate 2): 146747
- Luminescence Raw1 ([2]; 4 µM, replicate 1): 102038
- Luminescence Raw2 ([2]; 4 µM, replicate 2): 104562
- Luminescence Raw1 ([2]; 10 µM, replicate 1): 106725
- Luminescence Raw2 ([2]; 10 µM, replicate 2): 129801
- Luminescence Raw1 ([2]; 20 µM, replicate 1): 80404
- Luminescence Raw2 ([2]; 20 µM, replicate 2): 106364
- IC50 [2, 8]: 0.254 µM
- IC50 ([2]; average±SEM, read-out: IC50): 0.25 ± 0.02 µM
- IC50 [2, 9]: 0.236 µM
- IC50 [2, 10]: 0.272 µM
- viability at 0.04 µM [3, 6]: 116%
- viability at 0.04 µM [3, 7]: 96.2%
- viability at 0.2 µM [3, 6]: 131%
- viability at 0.2 µM [3, 7]: 115%
- viability at 1 µM [3, 6]: 108%
- viability at 1 µM [3, 7]: 131%
- viability at 4 µM [3, 6]: 64.8%
- viability at 4 µM [3, 7]: 91.8%
- viability at 10 µM [3, 6]: 7.4%
- viability at 10 µM [3, 7]: 8.02%
- viability at 20 µM [3, 6]: 9.23%
- viability at 20 µM [3, 7]: 8.3%
- Luminescence Raw1 ([4]; 0.04 µM): 2968023
- Luminescence Raw2 ([4]; 0.04 µM): 2468099
- Luminescence Raw1 ([4]; 0.2 µM): 3357960
- Luminescence Raw2 ([4]; 0.2 µM): 2956480
- Luminescence Raw1 ([4]; 1 µM): 2768193
- Luminescence Raw2 ([4]; 1 µM): 3359403
- Luminescence Raw1 ([4]; 4 µM): 1663102
- Luminescence Raw2 ([4]; 4 µM): 2355206
- Luminescence Raw1 ([4]; 10 µM): 190041
- Luminescence Raw2 ([4]; 10 µM): 205906
- Luminescence Raw1 ([4]; 20 µM): 236915
- Luminescence Raw2 ([4]; 20 µM): 213117
- IC50 [4, 8]: 6 µM
- IC50 ([4]; average±SEM, read-out: IC50): 6 ± 1.09 µM
- IC50 [4, 9]: 4.92 µM
- IC50 [4, 10]: 7.09 µM
- EC50 ([5]; MAGI assay, read-out: EC50): < 0.2 µM
- EC50 [5, 11]: 0.643 µM
